Test results from US20130190345A1, “MATRINIC ACID/MATRINE DERIVATIVES AND PREPARATION METHODS AND USES THEREOF” (priority 2010, published 2013).
Values after ≈ are worked out from the molar mass of the structure shown.

What was measured:
Hsc70 [1] = experiment: Detection of Hsc70 gene expression level upon action of compound on 2.2.15 cells (real-time fluorescent quantified PCR); format: cell-based; set-up: Hsc70 mRNA / Hsc70 down-regulation rate (%): unit not given here; conditions: 2.2.15 cells
In short: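 2.2.15 cells grown 24 hr in 10% FCS medium, then exposed to compounds (20 mg/ml MEM stock diluted in medium) for 12, 24 or 36 hr; 400 μg/ml OMTR as control. Hsc70 mRNA and HBV DNA changes measured by real-time fluorescent quantitative PCR.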

HCV = experiment: Inhibition effects of compounds on HCV in Huh7.5 cultured cell after HCV infection; format: cell-based
In short: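 Huh7.5 cells, cultured 24 h, were infected with HCV at 45 IU/cell and given drug in medium for 72 h at 37° C. Intracellular HCV and GAPDH RNA quantified by one-step qRT-PCR, with inhibition analysed against virus control; three repeats.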

[2] = Acute toxicity of compound in mice; format: in vivo
Description: Kunming mice (purchased from Institute of Animal, Chinese Academy of Medical Sciences), 18-20 g, were weighed and randomly divided in groups, 10 mice per group, half male and half female, intraperitoneally injected with DM122 solution, in concentration of 0, 250 mg/kg, 500 mg/kg and 1000 mg/kg once. The death of animals was observed. On the 7th day, the animals were weighed, blood samples were taken and functional indexes (GOT, GPT, BUN and CRE) of liver and kidney in blood were determined.
Since Compound 6b had relatively high activity on anti-HBV and anti-HCV. The inventors had used it as a candidate of anti-hepatitis drug to evaluate its safety in animal body. Kunming mice were used for test of safety and acute toxicity of Compound 6b (13-methoxy matrine), via oral administration, administration doses were separately 250, 500 and 750 mg/kg once, then the mice were strictly monitored for 7 days.

wild type HBV = experiment: Inhibition effects on wild type HBV (Real-time PCR of HBV DNA, Huh-7.5 cells); format: cell-based; conditions: 36 h; lamivudine 0.16n/mL, compound 6b 37 μg/mL
Description: (§1) Lamivudine-resistant strain (LRS M204V L180M) was used to transfect Huh-7.5 cells, lamivudine was used as positive control, lamivudine (0.16n/mL) and compound 6b (37 μg/mL) were separately used to treat wild type and LRS type HBV, after 36 h, Real-time PCR was used to determine HBV DNA levels, respectively, and the results were shown in FIG. 12.

[3] = tested on: Lamivudine-resistant strain (LRS M204V L180M) HBV; experiment: Inhibition effects on drug resistant type HBV (Real-time PCR of HBV DNA, Huh-7.5 cells); format: cell-based; conditions: 36 h; lamivudine 0.16n/mL, compound 6b 37 μg/mL
Description: as §1

Hsc70 [4] = experiment: Inhibition effects of compound on Hsc70 in Huh7.5 cultured cell (qRT-PCR, Western blotting); format: cell-based; set-up: key to Hsc70 down-regulation rate (%): “—” represents no significant inhibition rate
Description: 2×10^5/ml Huh7.5 cells (purchased from Vertex Pharmaceutical Co., USA) were inoculated in an amount of 3 ml on 6-well culture plate, placed in an incubator with 37° C., 5% CO2 content, saturation humidity, and cultured for 24 h, added with different drug solutions (DM122) formulated with culture medium, and cell control was set. Cultivation was continuously performed in the incubator with 37° C., 5% CO2 content, saturation humidity for 24 h, a kit for RNA extraction was used to extract intracellular RNA from the cells, and one-step qRT-PCR was used to determine intracellular contents of Hsc70 and GAPDHRNA. After the cultivation of cells was performed for 48 h, the cells were digested and harvested, then the cells were split with CytoBuster™ Protein Extraction Buffer that contained many kinds of protease inhibitors, total intracellular proteins were extracted, and Western blotting was used to analyze the contents of Hsc70 and GAPDH proteins. In comparison with the cell control, the inhibition effects on Hsc70 upon action of different drugs were analyzed.

2.2.15 cells = experiment: Drug TC50 by MTT detection; format: cell-based; conditions: Reed-Muench
Description: 2.2.15 cells (all cells were purchased from Vertex Pharmaceutical Co., USA) in exponential growth phase were inoculated on 96-well culture plate, 2×10^5 cells/well, added with culture media containing PFA diluted in different concentration rates, 3 wells for each diluted concentration, placed in 37° C. CO2—containing incubator and cultivated for 48 h; the supernatant was discarded, 100 μl of MTT (0.5 mg/ml) in culture medium was added, cultivation was continuously performed at 37° C. for 4 h; each well was added to 100 μl of 50% DMF-20% SDS destaining solution, stood at 37° C. overnight; ELISA was used to measure optical density at wavelength of 570 nm (0D570).
In each experiment, 3 cell control wells and 3 blank controls well were set, the results were used in formula, (cell control OD570-drug-medicated cell OD570)/cell control OD570, to calculate cell death rate (%), and Reed-Muench method was used to calculate half toxic concentration TC50.

DHBV = DHBV animal test; format: in vivo, Peking ducks
Description: Infection and administration: Peking ducks (purchased from Institute of Animals, Chinese Academy of Medical Sciences) were infected via foot vein with 0.2 ml DHBV positive serum. […] The control group was administered with physiological saline (1 ml); positive control was administered with 3TC (lamivudine), in dose of 50 mg/kg (5 mg/ml, 1 ml).

Hsc70 [5] = experiment: Hsc70 protein in virus particles in supernatant from HCV-infected Huh7.5 cultured cell liquid; format: cell-based; conditions: HCV-infected Huh7.5 cells, 96 h, Western blotting (FIG. 8)
Description: Huh7.5 cells were inoculated in an amount of 3×10^4/cm^2, cultured in 10 cm culture dish (58.1 cm^2/well) for 6 h, infected with HCV and simultaneously added with DM-122 drug solutions with different concentration and positive control Intron A, after action for 96 h, the supernatant from cultured cell liquid was subjected to ultra-high speed centrifugation to separate virus particles, Western blotting was used to analyze the contents of Hsc70 and GAPDH proteins in virus particles.

CCOC1CC(=O)N2CC3CCCN4CCCC(C34)C2C1 (stereo not drawn) [Compound 6b, 13-ethoxy matrine]
Hsc70 mRNA (Hsc70 [1]; down-regulation of liver cell Hsc70 gene): 74.1 ± 0.11 | anti-HCV activity (HCV nucleoprotein and Hsc70 protein levels) (HCV; HCV-infected Huh7.5 cells, 200 μg/mL, Western blotting (FIG. 7B)): significant activity on anti-HCV | activity against HCV (HCV RNA level) (HCV; HCV-infected Huh7.5 cells, 200 μg/mL, real-time RT-PCR): best activity against HCV | oral LD50 ([2]; mice, oral administration once): greater than 1000 mg/kg | death of mice ([2]; oral once, 250, 500 and 750 mg/kg): no mouse died | change of bodyweight ([2]; oral once, 250, 500 and 750 mg/kg (FIG. 11A)): no significant change of bodyweight | AST, ALT, BUN and CRE indexes in blood ([2]; oral, 750 mg/kg dose group (FIG. 11B)): no significant abnormality | inhibition rate on wild type HBV (wild type HBV): 35% | inhibition rate on drug-resistant HBV [3]: 32%

COc1ccc(CN2CC3CCCN4CCCC(C2CCCC(=O)O)C34)cc1 (stereo not drawn) [DM-122, N-(4-methoxybenzyl) matrinic acid]
Hsc70 inhibition rate (down-regulation of Hsc70 expression activity, expressed in relative OMT ratio) (Hsc70 [1]; relative to OMT (= 1)): 1.56 | Hsc70 down-regulation rate (%) (Hsc70 [4]; 200 ug/ml (upper data)): 36.8 ± 1.4% | Hsc70 down-regulation rate (%) (Hsc70 [4]; 400 ug/ml (lower data)): — | inhibition of intracellular Hsc70 mRNA (Hsc70 [4]; Huh7.5 cells, 24 h, qRT-PCR (FIG. 4)): dose-dependent inhibition effects | inhibition of intracellular Hsc70 protein (Hsc70 [4]; Huh7.5 cells, 48 h, Western blotting (FIG. 5)): dose-dependent inhibition effects | HCV inhibition rate (%) (HCV; 200 ug/ml (upper data)): 77.2 ± 4.8% | HCV inhibition rate (%) (HCV; 400 ug/ml (lower data)): 88.0 ± 4.0% | inhibition of intracellular HCV Core and Hsc70 proteins (HCV; HCV-infected Huh7.5 cells, 72 h, Western blotting (FIG. 7A)): dose-dependent inhibition effects | effect on intracellular HCV RNA (HCV; HCV-infected Huh7.5 cells, 72 h, qRT-PCR (FIG. 6)): dose-dependent effects | EC50 (half effective concentration) (HCV; virus not given, stands beside HCV inhibition rate): 252.35 µg/mL (≈ 653 µM) | CC50 (concentration to cause poisoning in half cells) (2.2.15 cells): >1000 µg/mL | HBVDNA in liver, inhibition rate (DHBV; duckling, oral 37.5 mg/kg twice per day, 15 days (FIG. 1)): −5.14% | activity against hepatitis B virus in DHBV-infected ducks (HBV DNA in liver and serum) (DHBV; oral 150, 75, 37.5 mg/kg twice per day, 15 days): good activity against hepatitis B virus | Hsc70 protein content in virus particles in supernatant (Hsc70 [5]): reduced the Hsc70 protein content in virus particles | influence on body weight of mice ([2]; mouse, in vivo): no influence on body weight of mice | influence on liver and kidney functions (GOT, GPT, BUN, CRE) ([2]; mouse, in vivo, ip): no influence on liver and kidney functions

Nc1ccn([C@@H]2CS[C@H](CO)O2)c(=O)n1 [lamivudine, reference compound]
inhibition rate on wild type HBV (wild type HBV): 64% | inhibition rate on drug-resistant HBV [3]: 28%
